Numbers after ± are expanded uncertainties.
Settings: Liquid, Ebulliometric method (Recirculating still)

vapor or sublimation pressure (273.15 K) [kPa]	vapor or sublimation pressure (283.15 K) [kPa]	vapor or sublimation pressure (293.15 K) [kPa]	vapor or sublimation pressure (303.15 K) [kPa]	vapor or sublimation pressure (313.15 K) [kPa]	vapor or sublimation pressure (323.15 K) [kPa]	Compound
194 ± 2	280 ± 2	389 ± 3	527 ± 3	704 ± 3	920 ± 4	FC(C(F)(F)F)C(F)(F)F [1,1,1,2,3,3,3-heptafluoropropane]
104 ± 2	150 ± 2	208 ± 2	284 ± 2	378 ± 2	494 ± 3	CCCC [butane]

Source: the NIST ThermoML archive (doi:10.1021/je7004837)
